{"source": "ChEMBL document CHEMBL4507324", "about": "(2021)", "conditions_in_all_cases": "Compound concentration 100.0 nM", "key": {"[1]": {"target": "AP2-associated protein kinase 1 (Homo sapiens) (UniProt Q2M2I8)"}, "[2]": {"test_system": "Tyrosine-protein kinase ABL1 (Homo sapiens), P00519 [H396P]"}, "[3]": {"target": "Tyrosine-protein kinase ABL2 (Homo sapiens) (UniProt P42684)"}, "[4]": {"target": "Activin receptor type-1B (Homo sapiens) (UniProt P36896)"}, "[5]": {"test_system": "ALK tyrosine kinase receptor (Homo sapiens), Q9UM73 [L1196M]"}, "[6]": {"target": "Serine/threonine-protein kinase BRSK2 (Homo sapiens) (UniProt Q8IWQ3)"}, "[7]": {"target": "Cyclin-dependent kinase 13 (Homo sapiens) (UniProt Q14004)"}, "[8]": {"target": "Tyrosine-protein kinase CSK (Homo sapiens) (UniProt P41240)"}, "[9]": {"target": "Epithelial discoidin domain-containing receptor 1 (Homo sapiens) (UniProt Q08345)"}, "[10]": {"target": "Serine/threonine-protein kinase MRCK gamma (Homo sapiens) (UniProt Q6DT37)"}, "[11]": {"target": "Ephrin type-A receptor 2 (Homo sapiens) (UniProt P29317)"}, "[12]": {"target": "Ephrin type-A receptor 3 (Homo sapiens) (UniProt P29320)"}, "[13]": {"target": "Fibroblast growth factor receptor 2 (Homo sapiens) (UniProt P21802)", "sequence (P21802 22-821 limits assumed)": "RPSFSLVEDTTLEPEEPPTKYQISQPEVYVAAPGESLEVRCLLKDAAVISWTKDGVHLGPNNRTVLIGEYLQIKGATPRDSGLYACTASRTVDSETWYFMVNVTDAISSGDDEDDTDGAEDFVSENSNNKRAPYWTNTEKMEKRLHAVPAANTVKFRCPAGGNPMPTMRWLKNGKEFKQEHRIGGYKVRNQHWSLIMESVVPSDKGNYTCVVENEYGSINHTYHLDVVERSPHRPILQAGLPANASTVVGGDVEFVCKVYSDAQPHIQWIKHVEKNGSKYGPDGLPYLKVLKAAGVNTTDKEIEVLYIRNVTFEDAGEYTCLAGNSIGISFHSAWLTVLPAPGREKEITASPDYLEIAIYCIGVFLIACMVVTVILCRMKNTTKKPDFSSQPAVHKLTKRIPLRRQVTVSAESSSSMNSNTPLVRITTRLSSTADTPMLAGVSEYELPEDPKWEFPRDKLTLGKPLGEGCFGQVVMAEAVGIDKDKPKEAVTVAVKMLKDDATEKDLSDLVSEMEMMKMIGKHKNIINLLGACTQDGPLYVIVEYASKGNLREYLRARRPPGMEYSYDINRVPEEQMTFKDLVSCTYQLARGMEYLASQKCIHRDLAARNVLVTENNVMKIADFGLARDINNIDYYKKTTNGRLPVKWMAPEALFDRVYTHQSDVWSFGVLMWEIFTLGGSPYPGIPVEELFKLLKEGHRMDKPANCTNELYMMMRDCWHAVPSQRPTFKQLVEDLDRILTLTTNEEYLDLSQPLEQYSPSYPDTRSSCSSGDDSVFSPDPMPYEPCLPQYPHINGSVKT"}, "[14]": {"target": "Tyrosine-protein kinase FRK (Homo sapiens) (UniProt P42685)", "sequence (P42685 whole entry)": "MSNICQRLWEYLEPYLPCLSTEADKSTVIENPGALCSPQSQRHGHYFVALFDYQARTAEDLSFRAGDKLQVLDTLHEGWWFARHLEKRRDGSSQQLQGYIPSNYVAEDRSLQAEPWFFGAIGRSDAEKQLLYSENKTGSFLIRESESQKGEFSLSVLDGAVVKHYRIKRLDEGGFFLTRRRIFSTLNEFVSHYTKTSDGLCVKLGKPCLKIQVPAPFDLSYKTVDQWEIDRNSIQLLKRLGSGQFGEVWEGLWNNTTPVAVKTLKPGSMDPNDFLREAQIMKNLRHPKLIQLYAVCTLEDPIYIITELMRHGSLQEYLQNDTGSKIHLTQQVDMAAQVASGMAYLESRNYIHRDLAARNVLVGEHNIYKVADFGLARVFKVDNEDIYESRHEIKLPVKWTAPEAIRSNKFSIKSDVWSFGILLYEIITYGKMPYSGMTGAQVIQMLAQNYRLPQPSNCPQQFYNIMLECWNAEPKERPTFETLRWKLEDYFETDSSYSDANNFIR"}, "[15]": {"target": "G protein-coupled receptor kinase 4 (Homo sapiens) (UniProt P32298)"}, "[16]": {"target": "Serine/threonine-protein kinase haspin (Homo sapiens) (UniProt Q8TF76)"}, "[17]": {"target": "Hormonally up-regulated neu tumor-associated kinase (Homo sapiens) (UniProt P57058)", "sequence (P57058 whole entry)": "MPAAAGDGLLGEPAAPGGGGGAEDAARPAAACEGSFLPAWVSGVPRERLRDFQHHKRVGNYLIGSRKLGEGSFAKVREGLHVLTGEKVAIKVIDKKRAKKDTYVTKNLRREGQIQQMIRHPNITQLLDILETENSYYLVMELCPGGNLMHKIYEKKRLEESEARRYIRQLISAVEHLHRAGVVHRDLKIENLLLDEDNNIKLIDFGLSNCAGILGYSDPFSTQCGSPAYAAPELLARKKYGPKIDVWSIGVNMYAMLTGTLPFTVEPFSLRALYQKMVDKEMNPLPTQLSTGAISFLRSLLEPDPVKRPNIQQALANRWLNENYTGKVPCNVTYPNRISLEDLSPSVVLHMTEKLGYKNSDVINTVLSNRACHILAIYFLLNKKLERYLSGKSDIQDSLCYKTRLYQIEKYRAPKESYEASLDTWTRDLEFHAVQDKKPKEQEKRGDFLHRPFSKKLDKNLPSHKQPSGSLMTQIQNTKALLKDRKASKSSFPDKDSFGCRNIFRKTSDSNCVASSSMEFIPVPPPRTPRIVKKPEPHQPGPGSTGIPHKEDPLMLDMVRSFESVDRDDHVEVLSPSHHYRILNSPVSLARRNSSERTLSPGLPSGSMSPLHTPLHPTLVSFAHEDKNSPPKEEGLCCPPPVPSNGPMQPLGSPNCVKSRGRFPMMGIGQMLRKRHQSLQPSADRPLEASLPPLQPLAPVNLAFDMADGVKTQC"}, "[18]": {"target": "Insulin receptor (Homo sapiens) (UniProt P06213)"}, "[19]": {"target": "Mitogen-activated protein kinase 9 (Homo sapiens) (UniProt P45984)"}, "[20]": {"target": "Tyrosine-protein kinase Lck (Homo sapiens) (UniProt P06239)"}, "[21]": {"target": "Leucine-rich repeat serine/threonine-protein kinase 2 (Homo sapiens) (UniProt Q5S007)"}, "[22]": {"target": "Mitogen-activated protein kinase kinase kinase 13 (Homo sapiens) (UniProt O43283)"}, "[23]": {"target": "Mitogen-activated protein kinase kinase kinase 2 (Homo sapiens) (UniProt Q9Y2U5)", "sequence (Q9Y2U5 whole entry)": "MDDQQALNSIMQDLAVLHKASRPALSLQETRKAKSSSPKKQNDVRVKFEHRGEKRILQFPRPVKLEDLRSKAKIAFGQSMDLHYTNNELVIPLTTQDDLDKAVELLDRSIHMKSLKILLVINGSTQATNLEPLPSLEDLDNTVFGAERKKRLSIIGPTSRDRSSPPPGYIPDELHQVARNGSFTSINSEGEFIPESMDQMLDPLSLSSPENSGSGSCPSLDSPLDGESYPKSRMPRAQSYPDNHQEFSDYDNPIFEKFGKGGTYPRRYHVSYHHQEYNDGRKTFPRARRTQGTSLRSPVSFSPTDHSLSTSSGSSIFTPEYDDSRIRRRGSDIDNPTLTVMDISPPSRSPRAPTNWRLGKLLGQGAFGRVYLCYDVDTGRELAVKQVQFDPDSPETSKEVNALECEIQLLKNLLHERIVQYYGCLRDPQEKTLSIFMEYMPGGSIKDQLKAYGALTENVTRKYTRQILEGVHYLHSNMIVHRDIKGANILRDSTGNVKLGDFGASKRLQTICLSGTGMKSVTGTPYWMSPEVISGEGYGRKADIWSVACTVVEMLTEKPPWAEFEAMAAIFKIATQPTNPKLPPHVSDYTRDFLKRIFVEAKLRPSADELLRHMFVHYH"}, "[24]": {"target": "Mitogen-activated protein kinase kinase kinase kinase 4 (Homo sapiens) (UniProt O95819)"}, "[25]": {"test_system": "Hepatocyte growth factor receptor (Homo sapiens), P08581 [M1250T]"}, "[26]": {"target": "Mitogen-activated protein kinase kinase kinase 9 (Homo sapiens) (UniProt P80192)", "sequence (P80192 whole entry, looked up)": "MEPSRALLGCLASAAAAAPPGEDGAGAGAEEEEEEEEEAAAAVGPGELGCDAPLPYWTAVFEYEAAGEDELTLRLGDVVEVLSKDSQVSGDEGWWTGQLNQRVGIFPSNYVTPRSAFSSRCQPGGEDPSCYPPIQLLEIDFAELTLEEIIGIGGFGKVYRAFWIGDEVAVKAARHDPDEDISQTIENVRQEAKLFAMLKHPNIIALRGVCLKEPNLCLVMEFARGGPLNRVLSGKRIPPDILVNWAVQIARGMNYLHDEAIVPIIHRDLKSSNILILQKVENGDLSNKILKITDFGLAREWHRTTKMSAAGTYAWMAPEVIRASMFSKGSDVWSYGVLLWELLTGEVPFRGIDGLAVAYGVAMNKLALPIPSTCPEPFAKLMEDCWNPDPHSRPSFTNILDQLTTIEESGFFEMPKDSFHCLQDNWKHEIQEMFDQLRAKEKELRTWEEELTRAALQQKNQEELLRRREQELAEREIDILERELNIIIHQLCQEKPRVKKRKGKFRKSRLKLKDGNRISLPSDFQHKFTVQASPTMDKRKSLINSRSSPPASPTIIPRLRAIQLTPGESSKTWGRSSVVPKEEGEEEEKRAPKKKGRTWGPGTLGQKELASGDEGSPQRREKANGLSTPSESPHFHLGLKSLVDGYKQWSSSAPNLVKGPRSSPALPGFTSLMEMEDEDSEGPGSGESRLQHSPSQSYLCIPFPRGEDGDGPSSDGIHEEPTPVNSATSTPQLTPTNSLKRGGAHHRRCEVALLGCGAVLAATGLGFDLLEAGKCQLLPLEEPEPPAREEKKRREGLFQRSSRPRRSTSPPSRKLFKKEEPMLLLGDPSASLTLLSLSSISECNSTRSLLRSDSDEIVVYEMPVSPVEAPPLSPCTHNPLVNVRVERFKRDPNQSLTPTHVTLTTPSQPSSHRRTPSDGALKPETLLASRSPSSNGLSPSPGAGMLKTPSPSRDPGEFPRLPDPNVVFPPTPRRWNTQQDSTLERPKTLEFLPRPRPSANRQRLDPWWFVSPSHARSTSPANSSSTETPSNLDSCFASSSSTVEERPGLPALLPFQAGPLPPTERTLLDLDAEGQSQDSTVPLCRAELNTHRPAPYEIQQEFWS"}, "[27]": {"target": "Serine/threonine-protein kinase 3 (Homo sapiens) (UniProt Q13188)"}, "[28]": {"target": "Serine/threonine-protein kinase Nek9 (Homo sapiens) (UniProt Q8TD19)"}, "[29]": {"target": "Serine/threonine-protein kinase PAK 5 (Homo sapiens) (UniProt Q9P286)"}, "[30]": {"target": "Cyclin-dependent kinase 2 homolog (Plasmodium falciparum (isolate 3D7)) (UniProt P61075)"}, "[31]": {"target": "Membrane-associated tyrosine- and threonine-specific cdc2-inhibitory kinase (Homo sapiens) (UniProt Q99640)", "sequence (Q99640 whole entry)": "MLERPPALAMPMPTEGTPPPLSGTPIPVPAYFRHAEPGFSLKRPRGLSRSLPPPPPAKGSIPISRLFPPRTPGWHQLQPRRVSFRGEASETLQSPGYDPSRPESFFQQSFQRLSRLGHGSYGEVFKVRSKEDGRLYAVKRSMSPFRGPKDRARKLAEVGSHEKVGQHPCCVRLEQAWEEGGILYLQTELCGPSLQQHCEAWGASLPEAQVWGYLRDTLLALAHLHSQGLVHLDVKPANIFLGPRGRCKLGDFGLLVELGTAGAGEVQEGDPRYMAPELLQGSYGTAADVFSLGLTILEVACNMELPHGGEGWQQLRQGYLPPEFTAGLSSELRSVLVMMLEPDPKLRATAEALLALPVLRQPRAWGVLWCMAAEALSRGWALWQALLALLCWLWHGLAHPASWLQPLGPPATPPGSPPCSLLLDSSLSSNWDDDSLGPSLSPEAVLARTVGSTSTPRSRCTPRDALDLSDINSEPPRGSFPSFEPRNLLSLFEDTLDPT"}, "[32]": {"target": "Serine/threonine-protein kinase PLK2 (Homo sapiens) (UniProt Q9NYY3)"}, "[33]": {"target": "Protein kinase C delta type (Homo sapiens) (UniProt Q05655)"}, "[34]": {"target": "Protein kinase C iota type (Homo sapiens) (UniProt P41743)"}, "[35]": {"target": "Interferon-induced, double-stranded RNA-activated protein kinase (Homo sapiens) (UniProt P19525)"}, "[36]": {"target": "STE20-like serine/threonine-protein kinase (Homo sapiens) (UniProt Q9H2G2)"}, "[37]": {"target": "Proto-oncogene tyrosine-protein kinase Src (Homo sapiens) (UniProt P12931)", "sequence (P12931 2-536 limits assumed)": "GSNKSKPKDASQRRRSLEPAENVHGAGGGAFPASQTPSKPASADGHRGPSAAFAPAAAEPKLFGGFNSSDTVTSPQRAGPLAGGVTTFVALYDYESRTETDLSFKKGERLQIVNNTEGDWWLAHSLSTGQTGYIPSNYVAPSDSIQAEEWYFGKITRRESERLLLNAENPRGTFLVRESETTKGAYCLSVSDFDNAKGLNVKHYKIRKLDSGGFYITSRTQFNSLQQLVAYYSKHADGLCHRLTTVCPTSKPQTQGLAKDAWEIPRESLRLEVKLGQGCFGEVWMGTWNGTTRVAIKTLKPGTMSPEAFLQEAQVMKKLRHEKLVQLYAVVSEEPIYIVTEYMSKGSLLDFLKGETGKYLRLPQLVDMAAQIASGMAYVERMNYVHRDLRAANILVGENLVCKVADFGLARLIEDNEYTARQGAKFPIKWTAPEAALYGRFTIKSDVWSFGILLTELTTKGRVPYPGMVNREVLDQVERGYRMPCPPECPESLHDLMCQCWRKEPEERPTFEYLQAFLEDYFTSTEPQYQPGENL"}, "[38]": {"target": "SRSF protein kinase 1 (Homo sapiens) (UniProt Q96SB4)"}, "[39]": {"target": "Serine/threonine-protein kinase TAO1 (Homo sapiens) (UniProt Q7L7X3)"}, "[40]": {"target": "Serine/threonine-protein kinase TAO2 (Homo sapiens) (UniProt Q9UL54)"}, "[41]": {"target": "Tyrosine-protein kinase Tec (Homo sapiens) (UniProt P42680)"}, "[42]": {"target": "Tyrosine-protein kinase receptor Tie-1 (Homo sapiens) (UniProt P35590)"}, "[43]": {"target": "BDNF/NT-3 growth factors receptor (Homo sapiens) (UniProt Q16620)"}, "[44]": {"target": "Non-receptor tyrosine-protein kinase TYK2 (Homo sapiens) (UniProt P29597)"}, "[45]": {"target": "Serine/threonine-protein kinase 32A (Homo sapiens) (UniProt Q8WU08)"}}, "data": [{"smiles": "CS(=O)(=O)N1CCCC(NC(=O)[C@H](CCC2CCCCC2)NC(=O)c2ccc(CNc3ncnc4c3nnn4-c3ccccc3)cc2)C1", "note": "(stereo not given in full) [SR-301]", "values": [{"measurement": "residual activity", "setting": "[1]", "value": 90, "unit": "%"}, {"measurement": "residual activity", "setting": "[2]", "value": 100, "unit": "%"}, {"measurement": "residual activity", "setting": "[3]", "value": 100, "unit": "%"}, {"measurement": "residual activity", "setting": "[4]", "value": 94, "unit": "%"}, {"measurement": "residual activity", "setting": "[5]", "value": 100, "unit": "%"}, {"measurement": "residual activity", "setting": "[6]", "value": 79, "unit": "%"}, {"measurement": "residual activity", "setting": "[7]", "value": 100, "unit": "%"}, {"measurement": "residual activity", "setting": "[8]", "value": 91, "unit": "%"}, {"measurement": "residual activity", "setting": "[9]", "value": 89, "unit": "%"}, {"measurement": "residual activity", "setting": "[10]", "value": 99, "unit": "%"}, {"measurement": "residual activity", "setting": "[11]", "value": 100, "unit": "%"}, {"measurement": "residual activity", "setting": "[12]", "value": 75, "unit": "%"}, {"measurement": "residual activity", "setting": "[13]", "value": 97, "unit": "%"}, {"measurement": "residual activity", "setting": "[14]", "value": 60, "unit": "%"}, {"measurement": "residual activity", "setting": "[15]", "value": 100, "unit": "%"}, {"measurement": "residual activity", "setting": "[16]", "value": 100, "unit": "%"}, {"measurement": "residual activity", "setting": "[17]", "value": 100, "unit": "%"}, {"measurement": "residual activity", "setting": "[18]", "value": 100, "unit": "%"}, {"measurement": "residual activity", "setting": "[19]", "value": 83, "unit": "%"}, {"measurement": "residual activity", "setting": "[20]", "value": 100, "unit": "%"}, {"measurement": "residual activity", "setting": "[21]", "value": 51, "unit": "%"}, {"measurement": "residual activity", "setting": "[22]", "value": 100, "unit": "%"}, {"measurement": "residual activity", "setting": "[23]", "value": 100, "unit": "%"}, {"measurement": "residual activity", "setting": "[24]", "value": 66, "unit": "%"}, {"measurement": "residual activity", "setting": "[25]", "value": 87, "unit": "%"}, {"measurement": "residual activity", "setting": "[26]", "value": 90, "unit": "%"}, {"measurement": "residual activity", "setting": "[27]", "value": 95, "unit": "%"}, {"measurement": "residual activity", "setting": "[28]", "value": 100, "unit": "%"}, {"measurement": "residual activity", "setting": "[29]", "value": 100, "unit": "%"}, {"measurement": "residual activity", "setting": "[30]", "value": 100, "unit": "%"}, {"measurement": "residual activity", "setting": "[31]", "value": 74, "unit": "%"}, {"measurement": "residual activity", "setting": "[32]", "value": 99, "unit": "%"}, {"measurement": "residual activity", "setting": "[33]", "value": 80, "unit": "%"}, {"measurement": "residual activity", "setting": "[34]", "value": 100, "unit": "%"}, {"measurement": "residual activity", "setting": "[35]", "value": 55, "unit": "%"}, {"measurement": "residual activity", "setting": "[36]", "value": 100, "unit": "%"}, {"measurement": "residual activity", "setting": "[37]", "value": 94, "unit": "%"}, {"measurement": "residual activity", "setting": "[38]", "value": 78, "unit": "%"}, {"measurement": "residual activity", "setting": "[39]", "value": 100, "unit": "%"}, {"measurement": "residual activity", "setting": "[40]", "value": 93, "unit": "%"}, {"measurement": "residual activity", "setting": "[41]", "value": 100, "unit": "%"}, {"measurement": "residual activity", "setting": "[42]", "value": 100, "unit": "%"}, {"measurement": "residual activity", "setting": "[43]", "value": 100, "unit": "%"}, {"measurement": "residual activity", "setting": "[44]", "value": 100, "unit": "%"}, {"measurement": "residual activity", "setting": "[45]", "value": 57, "unit": "%"}]}, {"smiles": "CS(=O)(=O)N1CCCC(NC(=O)[C@H](CCC2CCCCC2)NC(=O)c2ccc(CNC(=O)c3cnc4ccccn34)cc2)C1", "note": "(stereo not given in full) [SR-302]", "values": [{"measurement": "residual activity", "setting": "[1]", "value": 92, "unit": "%"}, {"measurement": "residual activity", "setting": "[2]", "value": 100, "unit": "%"}, {"measurement": "residual activity", "setting": "[3]", "value": 56, "unit": "%"}, {"measurement": "residual activity", "setting": "[4]", "value": 96, "unit": "%"}, {"measurement": "residual activity", "setting": "[5]", "value": 94, "unit": "%"}, {"measurement": "residual activity", "setting": "[6]", "value": 100, "unit": "%"}, {"measurement": "residual activity", "setting": "[7]", "value": 61, "unit": "%"}, {"measurement": "residual activity", "setting": "[8]", "value": 100, "unit": "%"}, {"measurement": "residual activity", "setting": "[9]", "value": 0.1, "unit": "%"}, {"measurement": "residual activity", "setting": "[10]", "value": 98, "unit": "%"}, {"measurement": "residual activity", "setting": "[11]", "value": 100, "unit": "%"}, {"measurement": "residual activity", "setting": "[12]", "value": 97, "unit": "%"}, {"measurement": "residual activity", "setting": "[13]", "value": 100, "unit": "%"}, {"measurement": "residual activity", "setting": "[14]", "value": 77, "unit": "%"}, {"measurement": "residual activity", "setting": "[15]", "value": 100, "unit": "%"}, {"measurement": "residual activity", "setting": "[16]", "value": 74, "unit": "%"}, {"measurement": "residual activity", "setting": "[17]", "value": 100, "unit": "%"}, {"measurement": "residual activity", "setting": "[18]", "value": 100, "unit": "%"}, {"measurement": "residual activity", "setting": "[19]", "value": 90, "unit": "%"}, {"measurement": "residual activity", "setting": "[20]", "value": 83, "unit": "%"}, {"measurement": "residual activity", "setting": "[21]", "value": 64, "unit": "%"}, {"measurement": "residual activity", "setting": "[22]", "value": 74, "unit": "%"}, {"measurement": "residual activity", "setting": "[23]", "value": 100, "unit": "%"}, {"measurement": "residual activity", "setting": "[24]", "value": 100, "unit": "%"}, {"measurement": "residual activity", "setting": "[25]", "value": 69, "unit": "%"}, {"measurement": "residual activity", "setting": "[26]", "value": 65, "unit": "%"}, {"measurement": "residual activity", "setting": "[27]", "value": 88, "unit": "%"}, {"measurement": "residual activity", "setting": "[28]", "value": 100, "unit": "%"}, {"measurement": "residual activity", "setting": "[29]", "value": 97, "unit": "%"}, {"measurement": "residual activity", "setting": "[30]", "value": 100, "unit": "%"}, {"measurement": "residual activity", "setting": "[31]", "value": 100, "unit": "%"}, {"measurement": "residual activity", "setting": "[32]", "value": 100, "unit": "%"}, {"measurement": "residual activity", "setting": "[33]", "value": 100, "unit": "%"}, {"measurement": "residual activity", "setting": "[34]", "value": 94, "unit": "%"}, {"measurement": "residual activity", "setting": "[35]", "value": 47, "unit": "%"}, {"measurement": "residual activity", "setting": "[36]", "value": 99, "unit": "%"}, {"measurement": "residual activity", "setting": "[37]", "value": 100, "unit": "%"}, {"measurement": "residual activity", "setting": "[38]", "value": 74, "unit": "%"}, {"measurement": "residual activity", "setting": "[39]", "value": 88, "unit": "%"}, {"measurement": "residual activity", "setting": "[40]", "value": 91, "unit": "%"}, {"measurement": "residual activity", "setting": "[41]", "value": 94, "unit": "%"}, {"measurement": "residual activity", "setting": "[42]", "value": 100, "unit": "%"}, {"measurement": "residual activity", "setting": "[43]", "value": 87, "unit": "%"}, {"measurement": "residual activity", "setting": "[44]", "value": 86, "unit": "%"}, {"measurement": "residual activity", "setting": "[45]", "value": 81, "unit": "%"}]}]}
